The text below walks through data of US5872107A, “Treatment of urogenital cancer with boron neutron capture therapy” (Emory University, priority 1997, dated 1999).

The conditions of data set [1]: typical nucleoside analogues; cited from earlier work.
A short description of data set [2]: Toxicity study: weight change and survival of normal Swiss mice. Type of data set: in vivo, Swiss female mice. The note with it: 30 mg/kg/day i.p. The protocol: A toxicity study was conducted on 6-week-old Swiss female mice treated with CDU and CFAU at 30 mg/kg/day. The compounds were prepared in sterile DMSO and injected intraperitoneally (0.1 mL). DMSO and water were used as controls, with the same injection volume as that used for the CDU and CFAU solutions. The dosing schedule used was once a day for 6 days, and the mice were weighed biweekly for 28 days. Results shown in Table 3 somewhat correlate with the cytotoxicity assays in vitro.

Take `Cc1cn([C@H]2C[C@H](N=[N+]=[N-])[C@@H](CO)O2)c(=O)[nH]c1=O` [AZT, 3'-azido-3'-deoxythymidine]: the “reabsorption by the renal tubule (in words)” value in data set [1] was “not reabsorbed appreciably by the renal tubule”.

For the molecule “5-o-carboranyl-1-(2-deoxy-2-fluoro-β-D-arabinofuranosyl)uracil [CFAU]”, in data set [2] (CFAU and CDU compared), the “weight loss after 1 week (in words)” value is “comparable weight loss after 1 week”. Further, in data set [2] (CFAU versus CDU), the “relative toxicity as monitored by survival outcome (in words)” value was “more toxic than CDU”. Further, the “day of death of mouse” value in data set [2] (one mouse of five) is 7 days. The “weight recovery at 4 weeks (in words)” value in data set [2] (surviving animals) is “all the surviving animals recovered their weight loss to control untreated levels”. Moreover, in data set [2] (week 1, once a day for 6 days), the “% of weight gained or lost on week 1” value is -6.8%. The “% of weight gained or lost on week 2” value in data set [2] (week 2, once a day for 6 days) was -0.4%. The “% of weight gained or lost on week 3” value in data set [2] (week 3, once a day for 6 days) was 5.0%. Moreover, in data set [2] (week 4, once a day for 6 days), the “% of weight gained or lost on week 4” value stood at 9.6% and the “survival at week 4, alive/total” value is listed as 4/5. The “survival at week 4 (%)” value in data set [2] (week 4, once a day for 6 days, 40320 min) is given as 80%.

Take `[N-]=[N+]=N[C@H]1C[C@H](n2ccc(=O)[nH]c2=O)O[C@@H]1CO` [AZddU, 3'-azido-2',3'-dideoxyuridine]: the “reabsorption by the renal tubule (in words)” value in data set [1] is on record as “not reabsorbed appreciably by the renal tubule”.
